For assay [1], the target named is T1, PKC-delta (Homo sapiens, UniProt Q05655).
T1 construct: purchased Oxford Biomedical Research
Put plainly: Protein Kinase C assay (fluorescence polarization), PKC-delta. Format: biochemical. As to the method:
(§1) The inhibition of PKC activity was measured by monitoring the production of phosphorylated peptide by fluorescence polarization at different concentrations of the inhibitor. Reactions were carried out in 96-well plate format with a total volume of 20 μL containing 20 mM HEPES, pH 7.4, 5 mM MgCl2, 0.2 mM CaCl2, 1 mM DTT, 0.02% Brij-35, 0.1 mg/mL phosphatidylserine, 0.02 mg/mL dioleoyl-sn-glycerol and 5 μM each of ATP and the peptide substrate. Compounds were first diluted serially in DMSO and then transferred to a solution containing the above concentrations of HEPES, MgCl2, CaCl2, DTT, and Brij-35 to yield 5× compound solutions in 2% DMSO, which was then added to the reaction solution. Reactions were initiated by the addition of PKC at a typical concentration as described in the table below, and then allowed to incubate at room temperature for 20 minutes. At the end of this time, a combination of quench (EDTA) and detection (peptide tracer and antibody) reagents was added using the protocol of Invitrogen P2748 (Carlsbad, Calif.), a Protein Kinase C Fluorescence polarization Assay Kit. After a 30 minute period of incubation, the amount of phosphorylated peptide generated was measured by fluorescence polarization (Ex=485 nm, Em=535 nm) using a Tecan Polarian instrument (Switzerland).
Human recombinant PKC δ is obtained from Oxford Biomedical Research and is used under the assay conditions as described under Section A.1 above.
(§2) Several subject compounds were tested according to procedures in the “Characterization of Functional Properties” section. PKC kinase activity was measured using the procedure Section A.1 (Protein Kinase C assay) with the appropriate isoform. The whole cell assay was run according to the procedure in Section A.2 (IL-2 ELISA, Human primary T cell, anti-CD3+CD28+ Assays). […] Blank entries indicate that the IC50 was not determined.
On the technique in general: Fluorescence polarisation rises when a labelled molecule tumbles more slowly, as on binding a larger partner.

For assay [2], the target named is T2, PKC-epsilon (Homo sapiens, UniProt Q02156).
T2 construct: purchased Upstate Biotechnologies, Temecula, CA 14-518
T2 sequence (Q02156 1-737): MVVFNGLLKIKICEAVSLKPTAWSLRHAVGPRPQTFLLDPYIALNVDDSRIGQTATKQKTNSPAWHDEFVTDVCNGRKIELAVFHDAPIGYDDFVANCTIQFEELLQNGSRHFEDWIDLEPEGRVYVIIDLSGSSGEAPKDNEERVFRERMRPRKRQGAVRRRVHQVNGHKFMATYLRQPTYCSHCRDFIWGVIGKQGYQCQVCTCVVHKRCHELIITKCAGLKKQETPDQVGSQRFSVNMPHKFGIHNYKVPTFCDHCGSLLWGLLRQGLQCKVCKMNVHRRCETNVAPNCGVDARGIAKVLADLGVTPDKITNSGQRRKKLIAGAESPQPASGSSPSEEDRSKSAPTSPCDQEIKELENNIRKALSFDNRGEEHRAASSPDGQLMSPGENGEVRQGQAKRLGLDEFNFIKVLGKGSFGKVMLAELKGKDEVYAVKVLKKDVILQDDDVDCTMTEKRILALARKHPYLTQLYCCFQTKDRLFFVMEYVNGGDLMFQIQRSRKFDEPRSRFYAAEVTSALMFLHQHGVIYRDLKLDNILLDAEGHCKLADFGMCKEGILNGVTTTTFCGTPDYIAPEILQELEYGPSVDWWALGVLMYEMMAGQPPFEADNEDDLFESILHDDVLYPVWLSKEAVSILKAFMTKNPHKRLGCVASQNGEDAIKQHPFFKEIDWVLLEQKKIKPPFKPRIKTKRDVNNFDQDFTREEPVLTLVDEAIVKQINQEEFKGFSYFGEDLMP
Nature of the assay: Protein Kinase C assay (fluorescence polarization), PKC-epsilon. Format: biochemical. As to the method: as §1
Human recombinant PKC […] is obtained from Oxford Biomedical Research and is used under the assay conditions as described under Section A.1 above.
as §2

In assay [3] the target is T3, PKC-theta (Homo sapiens, UniProt Q04759).
T3 construct: purchased Upstate Biotechnologies, Temecula, CA 14-444
Put plainly: Protein Kinase C assay (fluorescence polarization), PKC-theta. Format: biochemical. As to the method:
as §1
Human recombinant PKC θ is used under the assay conditions as described above.
as §2

Assay [4] concerns Human primary T cell. Nature of the assay: IL-2 ELISA, human primary T cell, anti-CD3+CD28+ whole cell assay. It counts as cell-based. Conditions: IL-2 by ELISA, human primary T cells stimulated with anti-CD3+CD28. As to the method: 2. IL-2 ELISA, Human Primary T Cell, Anti-CD3+CD28+ Assays
Human primary T cells were prepared as follows. Whole blood was obtained from a healthy volunteer, mixed 1:1 with PBS, layered on to Ficoll Hypaque (Amersham Pharmacia Biotech, Piscataway, N.J., Catalog #17-1440-03) in 2:1 blood/PBS:ficoll ratio and centrifuged for 30 minutes at 4° C. at 1750 rpm. The cells at the serum:ficoll interface were recovered and washed twice with 5 volumes of PBS. These freshly isolated human peripheral blood mononuclear cells were cultured in Yssel's medium containing 40 U/mL IL2 in a flask pre-coated with 1 μg/mL αCD3 and 5 μg/mL αCD28 (Anti-Human CD3, BD Pharmingen Catalog #555336, Anti-Human CD28, Beckman Coulter Catalog #1M1376). The cells were stimulated for 3-4 days, then transferred to a fresh flask and maintained in RPMI (RPMI-1640 with L-Glutamine; Mediatech, Inc., Herndon Va., cat. #10-040-CM) with 10% FBS and 40 U/mL IL-2. The primary T-cells were then washed twice with PBS to remove the IL-2.
Human primary T cells (100,000 cells per well) were pre-incubated with or without test compound in Yssel's medium for 1 hr at 37° C. Cells were then stimulated by transferring them to round-bottom 96-well plates pre-coated with 1 μg/ml αCD3 and 5 μg/ml αCD28. For counter assay, cells were instead stimulated by adding 8× stock solutions of PMA and ionomycin in Yssels (for final concentrations of 0.5 ng/ml PMA and 0.1 μM ionomycin, both from Calbiochem). Cells were incubated at 37° C. for 24 hours before 100 μL supernatants were harvested for quantification of IL-2 by ELISA using Human IL-2 Duoset ELISA Kit from R and D Systems, Cat. # DY202E.
as §2
(In general: In an ELISA, binding on a coated surface is turned into a signal by an enzyme label.)

In assay [5] the target is T4, PKC-beta (Homo sapiens, UniProt P05771).
T4 construct: purchased Oxford Biomedical Research
Nature of the assay: Protein Kinase C assay (fluorescence polarization), PKC-beta. Format: biochemical. As to the method:
as §1
Human recombinant PKC β1 is obtained from Oxford Biomedical Research and is used under the assay conditions as described under Section A.1 above.
as §2

For assay [6], the target named is T5, PKC-alpha (Homo sapiens, UniProt P17252).
T5 construct: purchased Oxford Biomedical Research
Put plainly: Protein Kinase C assay (fluorescence polarization), PKC-alpha. It counts as biochemical. As to the method:
as §1
Human recombinant PKC α is obtained from Oxford Biomedical Research and is used under the assay conditions as described under Section A.1 above.
as §2

T1 sequence (Q05655 whole entry): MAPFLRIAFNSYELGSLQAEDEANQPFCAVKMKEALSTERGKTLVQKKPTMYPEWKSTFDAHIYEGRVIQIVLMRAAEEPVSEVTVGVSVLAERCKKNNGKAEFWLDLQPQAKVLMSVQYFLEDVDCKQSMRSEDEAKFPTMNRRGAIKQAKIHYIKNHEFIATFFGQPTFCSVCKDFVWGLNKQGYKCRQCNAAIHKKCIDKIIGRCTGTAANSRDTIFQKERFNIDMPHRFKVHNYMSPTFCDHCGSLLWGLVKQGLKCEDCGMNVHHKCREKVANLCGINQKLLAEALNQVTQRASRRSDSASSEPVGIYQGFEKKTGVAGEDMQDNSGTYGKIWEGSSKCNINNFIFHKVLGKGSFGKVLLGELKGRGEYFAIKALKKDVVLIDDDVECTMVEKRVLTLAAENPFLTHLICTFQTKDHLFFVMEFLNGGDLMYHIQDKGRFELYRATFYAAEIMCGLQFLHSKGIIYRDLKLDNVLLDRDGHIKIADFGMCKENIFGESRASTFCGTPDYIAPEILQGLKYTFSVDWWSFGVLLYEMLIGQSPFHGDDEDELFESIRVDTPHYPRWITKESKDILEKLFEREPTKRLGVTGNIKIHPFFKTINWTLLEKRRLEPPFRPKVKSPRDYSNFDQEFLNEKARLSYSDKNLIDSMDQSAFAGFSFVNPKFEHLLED
T3 sequence (Q04759 whole entry): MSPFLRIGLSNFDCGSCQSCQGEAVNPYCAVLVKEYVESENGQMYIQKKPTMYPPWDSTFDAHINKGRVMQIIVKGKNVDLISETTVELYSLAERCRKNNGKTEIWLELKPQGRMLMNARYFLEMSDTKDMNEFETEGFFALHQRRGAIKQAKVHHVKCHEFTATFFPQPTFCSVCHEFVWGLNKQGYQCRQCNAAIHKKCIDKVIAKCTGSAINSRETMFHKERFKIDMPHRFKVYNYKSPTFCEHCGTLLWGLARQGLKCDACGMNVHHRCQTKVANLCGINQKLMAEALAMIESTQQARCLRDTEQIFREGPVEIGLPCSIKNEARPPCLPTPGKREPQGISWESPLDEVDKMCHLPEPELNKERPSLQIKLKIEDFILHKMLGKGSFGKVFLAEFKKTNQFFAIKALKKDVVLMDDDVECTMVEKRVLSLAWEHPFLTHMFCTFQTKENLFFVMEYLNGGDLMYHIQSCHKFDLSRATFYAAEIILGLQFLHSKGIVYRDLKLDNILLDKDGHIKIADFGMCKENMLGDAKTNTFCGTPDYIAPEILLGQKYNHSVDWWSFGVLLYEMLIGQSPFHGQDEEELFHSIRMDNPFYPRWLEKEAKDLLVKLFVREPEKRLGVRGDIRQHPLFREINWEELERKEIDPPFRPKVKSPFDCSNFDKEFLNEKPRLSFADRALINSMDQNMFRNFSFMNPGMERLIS
T4 sequence (P05771 whole entry): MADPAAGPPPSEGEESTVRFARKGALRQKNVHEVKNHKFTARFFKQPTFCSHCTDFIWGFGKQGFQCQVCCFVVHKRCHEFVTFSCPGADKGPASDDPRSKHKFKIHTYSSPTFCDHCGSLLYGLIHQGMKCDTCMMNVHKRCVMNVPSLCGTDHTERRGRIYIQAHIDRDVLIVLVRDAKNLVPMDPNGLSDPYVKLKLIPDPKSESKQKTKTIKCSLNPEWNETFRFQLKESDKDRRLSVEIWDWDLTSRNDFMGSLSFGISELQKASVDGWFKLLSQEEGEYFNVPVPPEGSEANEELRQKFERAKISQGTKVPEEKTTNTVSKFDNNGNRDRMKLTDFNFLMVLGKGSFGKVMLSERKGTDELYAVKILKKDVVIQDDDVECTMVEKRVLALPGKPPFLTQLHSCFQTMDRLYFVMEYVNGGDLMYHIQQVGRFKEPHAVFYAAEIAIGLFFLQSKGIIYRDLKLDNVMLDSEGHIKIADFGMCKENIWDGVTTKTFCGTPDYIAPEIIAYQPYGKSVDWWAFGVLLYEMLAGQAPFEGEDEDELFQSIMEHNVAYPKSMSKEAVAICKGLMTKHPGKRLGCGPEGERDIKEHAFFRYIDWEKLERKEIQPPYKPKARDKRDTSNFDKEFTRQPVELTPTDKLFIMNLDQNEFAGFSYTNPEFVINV

A word on the IC50: it is the concentration that gives 50% inhibition. In the case of `CN1C(C)(C)CC(Nc2nc(Nc3ccc4c(c3)-n3nnnc3C(F)(F)O4)ncc2F)CC1(C)C` [Compound 1-6, N2-(4,4-difluoro-4H-benzo[b]tetrazolo[1,5-d][1,4]oxazin-8-yl)-5-fluoro-N4-(1,2,2,6,6-pentamethylpiperidin-4-yl)pyrimidine-2,4-diamine], the IC50 in assay [1] is < 250 nM; in assay [2], < 250 nM; in assay [3] it was < 250 nM; in assay [4] (T-cell), 250 to 500 nM; in assay [5] it was < 250 nM; in assay [6], < 250 nM.

“N2-(4H-benzo[b]pyrrolo[1,2-d][1,4]oxazin-8-yl)-5-fluoro-N4-(2,2,6,6-tetramethylpiperidin-4-yl)pyrimidine-2,4-diamine [Compound 1-3]” yielded a 50% inhibitory concentration (IC50) in assay [4] of 1000 to 5000 nM.

Turning to `CC1(C)CC(CNc2nc(Nc3ccc4c(c3)-n3nnnc3CO4)ncc2F)C(C)(C)N1` (stereo not shown) [Compound 2-1, N2-(4H-benzo[b]tetrazolo[1,5-d][1,4]oxazin-8-yl)-5-fluoro-N4-((2,2,5,5-tetramethylpyrrolidin-3-yl)methyl)pyrimidine-2,4-diamine], the IC50 in assay [1], in assay [2], in assay [3], in assay [4] (T-cell), in assay [5] and in assay [6] was < 250 nM throughout.

For the molecule `CC1(C)CC(Nc2nc(Nc3ccc4c(c3)-c3nnnn3C(C)(C)O4)ncc2F)CC(C)(C)N1` [Compound 1-9, N2-(5,5-dimethyl-5H-benzo[e]tetrazolo[1,5-c][1,3]oxazin-9-yl)-5-fluoro-N4-(2,2,6,6-tetramethylpiperidin-4-yl)pyrimidine-2,4-diamine], the half-maximal inhibitory concentration (IC50) in assay [4] (T-cell) was 500 to 1000 nM.

As for `CN1C(C)(C)CC(Nc2nc(Nc3ccc4c(c3)-n3nnnc3C3(CCC3)O4)ncc2F)CC1(C)C` [Compound 1-12, N2-{2,1-Spiro-butane-4H-tetrazolo[5,1-c][1,4]benzoxazin-8-yl}-5-fluoro-N4-(1,2,2,6,6-pentamethylpiperidin-4-yl)-2,4-pyrimidinediamine], the IC50 in assay [1], in assay [2], in assay [3], in assay [4], in assay [5] and in assay [6] was < 250 nM throughout.

Turning to `CN1C(C)(C)CC(Nc2nc(Nc3ccc4c(c3)-c3nnnn3C(C)(C)O4)ncc2F)CC1(C)C` [Compound 1-10, N2-(5,5-dimethyl-5H-benzo[e]tetrazolo[1,5-c][1,3]oxazin-9-yl)-5-fluoro-N4-(1,2,2,6,6-pentamethylpiperidin-4-yl)pyrimidine-2,4-diamine], the IC50 in assay [4] (T-cell) is < 250 nM.

Regarding “N2-(4H-benzo[b]pyrrolo[1,2-d][1,4]oxazin-8-yl)-5-fluoro-N4-(1,2,2,6,6-pentamethylpiperidin-4-yl)pyrimidine-2,4-diamine [Compound 1-4]”, the 50% inhibitory concentration (IC50) in assay [4] was in the range of 1000 to 5000 nM.

As to `CN1C(C)(C)CC(CNc2nc(Nc3ccc4c(c3)-n3nnnc3CO4)ncc2F)C1(C)C` (stereo not shown) [Compound 2-2, N2-(4H-benzo[b]tetrazolo[1,5-d][1,4]oxazin-8-yl)-5-fluoro-N4-((1,2,2,5,5-pentamethylpyrrolidin-3-yl)methyl)pyrimidine-2,4-diamine], the IC50 in assay [1], in assay [2], in assay [3], in assay [4] (T-cell), in assay [5] and in assay [6] was < 250 nM throughout.

For the molecule `CC1(C)CC(Nc2nc(Nc3ccc4c(c3)-n3nnnc3CO4)ncc2F)CC(C)(C)N1` [Compound 1-1, N2-(4H-benzo[b]tetrazolo[1,5-d][1,4]oxazin-8-yl)-5-fluoro-N4-(2,2,6,6-tetramethylpiperidin-4-yl)pyrimidine-2,4-diamine], the IC50 in assay [1], in assay [2], in assay [3], in assay [4] (T-cell), in assay [5] and in assay [6] was < 250 nM in each case.

`CN1C(C)(C)CC(Nc2nc(Nc3ccc4c(c3)-n3nnnc3CO4)ncc2F)CC1(C)C` [Compound 1-2, N2-(4H-benzo[b]tetrazolo[1,5-d][1,4]oxazin-8-yl)-5-fluoro-N4-(1,2,2,6,6-pentamethylpiperidin-4-yl)pyrimidine-2,4-diamine]: the IC50 in assay [1], in assay [2], in assay [3], in assay [4] (T-cell), in assay [5] and in assay [6] was < 250 nM each time.

As to `CC1C[C@@H](CNc2nc(Nc3ccc4c(c3)-n3nnnc3C(C)(C)O4)ncc2F)C(C)(C)N1` (stereo partly drawn) [Compound 2-7, N2-(4,4-dimethyl-4H-benzo[b]tetrazolo[1,5-d][1,4]oxazin-8-yl)-5-fluoro-N4-(((3S)-2,2,5-trimethylpyrrolidin-3-yl)methyl)pyrimidine-2,4-diamine], the half-inhibitory concentration (IC50) in assay [1], in assay [2], in assay [3], in assay [4], in assay [5] and in assay [6] was < 250 nM throughout.

Consider `CN1C(C)(C)CC(Nc2nc(Nc3ccc4c(c3)-n3nnnc3C(C)(C)O4)ncc2F)CC1(C)C` [Compound 1-8, N2-(4,4-dimethyl-4H-benzo[b]tetrazolo[1,5-d][1,4]oxazin-8-yl)-5-fluoro-N4-(1,2,2,6,6-pentamethylpiperidin-4-yl)pyrimidine-2,4-diamine], for which the IC50 in assay [1], in assay [2], in assay [3], in assay [4] (T-cell), in assay [5] and in assay [6] was < 250 nM throughout.

For `CC1Oc2ccc(Nc3ncc(F)c(NC4CC(C)(C)N(C)C(C)(C)C4)n3)cc2-n2nnnc21` (stereo not shown) [Compound 1-18], the concentration for half-maximal inhibition (IC50) in assay [1], in assay [2], in assay [3], in assay [4] (T-cell), in assay [5] and in assay [6] was < 250 nM throughout.

These data come from patent publication US9453028B2, “Protein kinase C inhibitors and uses thereof” (Rigel Pharmaceuticals, Inc., priority 2009, dated 2016).
